From EP0560267B1, “Isosteric antiherpes peptide derivatives” (BOEHRINGER INGELHEIM (CANADA) LTD., priority 1992, dated 1993)
Like-named read-outs stand apart in the source and are kept apart here.

Legend:
[1] = biological target: T1, HSV-1 ribonucleotide reductase (Human herpesvirus 1, UniProt P08543); experiment: Inhibition of Herpes Simplex Virus (HSV-1) ribonucleotide reductase; assay type: biochemical
T1 construct: HSV-1 ribonucleotide reductase (partially purified) was obtained from quiescent BHK-21/C13 cells infected with strain F HSV-1 virus; made in house; host or cells: quiescent BHK-21/C13 cells infected with HSV-1 strain F (virus-encoded enzyme, partially purified)
T1 sequence (P08543 whole entry): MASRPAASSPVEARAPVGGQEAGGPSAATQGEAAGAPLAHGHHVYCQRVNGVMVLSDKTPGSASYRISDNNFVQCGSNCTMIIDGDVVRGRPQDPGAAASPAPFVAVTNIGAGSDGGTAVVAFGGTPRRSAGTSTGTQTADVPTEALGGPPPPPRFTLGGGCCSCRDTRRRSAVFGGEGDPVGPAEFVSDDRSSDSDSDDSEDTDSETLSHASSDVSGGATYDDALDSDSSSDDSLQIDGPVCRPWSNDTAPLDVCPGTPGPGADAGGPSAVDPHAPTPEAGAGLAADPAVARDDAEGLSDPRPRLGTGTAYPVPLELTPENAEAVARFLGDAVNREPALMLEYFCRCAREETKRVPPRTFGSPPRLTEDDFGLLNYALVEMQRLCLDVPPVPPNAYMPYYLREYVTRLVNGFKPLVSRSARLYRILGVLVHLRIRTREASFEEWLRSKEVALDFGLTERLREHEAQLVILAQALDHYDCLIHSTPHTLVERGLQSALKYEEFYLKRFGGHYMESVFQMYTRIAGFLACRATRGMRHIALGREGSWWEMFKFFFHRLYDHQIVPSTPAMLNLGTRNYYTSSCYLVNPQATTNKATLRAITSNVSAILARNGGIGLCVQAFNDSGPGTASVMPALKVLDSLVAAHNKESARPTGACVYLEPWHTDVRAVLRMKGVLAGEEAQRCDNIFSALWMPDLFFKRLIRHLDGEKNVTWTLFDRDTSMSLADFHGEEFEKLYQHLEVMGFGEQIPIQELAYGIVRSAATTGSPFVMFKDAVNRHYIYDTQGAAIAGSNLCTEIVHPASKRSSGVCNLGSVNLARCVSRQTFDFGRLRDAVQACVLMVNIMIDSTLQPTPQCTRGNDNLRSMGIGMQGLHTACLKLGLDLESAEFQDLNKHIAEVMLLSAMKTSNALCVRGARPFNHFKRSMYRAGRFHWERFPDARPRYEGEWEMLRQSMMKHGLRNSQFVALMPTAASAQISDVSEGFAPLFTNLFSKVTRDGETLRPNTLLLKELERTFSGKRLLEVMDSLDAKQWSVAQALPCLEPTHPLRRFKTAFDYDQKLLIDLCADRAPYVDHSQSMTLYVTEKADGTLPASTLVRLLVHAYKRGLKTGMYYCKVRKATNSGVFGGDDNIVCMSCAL
Description: Inhibition of Herpes Simplex Virus (HSV-1) Ribonucleotide Reductase
• a) Preparation of Enzyme HSV-1 ribonucleotide reductase (partially purified) was obtained from quiescent BHK-21/C13 cells infected with strain F HSV-1 virus at 10 plaque forming units/cell as described by E.A. Cohen et al., J. Gen. Virol., 66, 733 (1985). • b) Assay and Results for Exemplified Peptides By following the procedure described by P. Gaudreau et al., J. Biol, Chem., 262, 12413 (1987), the assay results listed in the following Table I were obtained. The assay result for each exemplified compound of formula 1 is expressed as the concentration of the compound producing 50% of the maximal inhibition (IC50) of enzyme activity. The number of units of the enzyme preparation used in each assay was constant, based on the specific activity of the enzyme preparation. The results are relative to the activity obtained in control experiments without the test compound and represent the mean of four assays that varied less than 10% with each other.

HSV-2 = experiment: Inhibition of Herpes Simplex Virus (HSV-2) replication in cell culture; assay type: cell-based
Protocol: Inhibition of Herpes Simplex Virus (HSV-2) Replication in Cell Culture
BHK-21/C13 cells (ATCC CCL 10) are incubated for two days in 150 cm^2 T-flasks (1.5 x 10^6 cells/flask) with alpha-MEM medium (Gibco Canada Inc., Burlington, Ontario, Canada) supplemented with 8% (v/v) fetal bovine serum (FBS, Gibco Canada Inc.). The cells are trypsinized and then transferred to fresh media in a 24 well plate to give 2.5 x 10^5 cells in 750 µL of media per well. The cells are incubated at 37° for a period of 6 h to allow them to adhere to the plate. Thereafter, the cells are washed once with 500 µL of alpha-MEM supplemented with 0.5% (v/v) FBS and then incubated with 750 µL of the same media (low serum) for 3 days. After this period of serum starvation, the low serum medium is removed and the cells are incubated in 500 µL of BBMT for 2 to 3 hours. {BBMT medium is described by P. Brazeau et al., Proc. Natl. Acad. Sci. USA, 79, 7909 (1982).} Thereafter, the cells are infected with HSV-2 (multiplicity of infection = 0.02 PFU/cell) in 100 µL of BBMT medium. (Note: The HSV-2 used was strain HG-52, see Y. Langelier and G. Buttin, J. Gen. Virol., 57, 21 (1981); the virus was stored at -80°.) Following 1 h of virus adsorption at 37°, the media is removed and the cells are washed with BBMT (3 X 250 µL). The cells in each well are incubated with or without (control) appropriate concentrations of the test agent dissolved in 200 µL of BBMT medium. After 29 h of incubation at 37°, the infected cells are harvested by first freezing the plate at -80°, followed by thawing. The cells in each well are scraped off the surface of the well with the help of the melting ice fragments. After complete thawing, the cell suspensions are collected and each well is rinsed with 150 µL of BBMT medium. The viral sample (suspension plus washing) is sonicated gently for 4 min at 4°. Cell debris are removed by centrifugation (1000 times gravity for 10 minutes at 4°). The supernatant is collected and stored at -80° until determination of viral titer.
Viral titration was performed by a modification of the colorimetric assay method of M. Langlois et al., Journal of Biological Standardization, 14, 201 (1986).
More specifically, in a similar manner as described above, BHK-21/C13 cells are trypsinized and transferred to fresh media in a 96 well microtiter plate to give 20,000 cells in 100 µL of media per well. The cells in the prepared plate are incubated at 37° for 2 h. During that time, the viral sample is thawed and sonicated gently for 15 seconds, and log dilutions of the sample are prepared (1/5 sequential: 50 µL of the sample plus 200 µL of BBMT medium, sequential dilutions being done with a multichannel pipette.
On completion of the above 2 hour incubation of the BHK-21/C13 cells, the media is replaced with alpha-MEM medium supplemented with 3% (v/v) FBS. The cells are now ready to be infected with the various sample dilutions of virus. Aliquots (50 µL) of the various dilutions are transferred into the appropriate wells of the plate. The resulting infected cells are incubated for 2 days at 37°. Then 50 µL of a 0.15% (v/v) solution of neutral red dye in Hank's Balanced Salt Solution (pH 7.3, Gibco Canada Inc.) is added to each well. The prepared plate is incubated for 45 min at 37°. Medium from each well is then aspirated and the cells are washed once with 200 µL of Hank's Balanced Salt Solution. […]

[2] = Human alphaherpesvirus 2, Table IV, cell culture assay of example 11, read-out: EC50
[3] = Table I, partially purified enzyme from BHK-21/C13 cells infected with strain F HSV-1, mean of four assays
[4] = Human alphaherpesvirus 2, BHK21 (C13), 29 h, Table II, BHK-21/C13 cells, HSV-2 strain HG-52, 0.02 PFU/cell, 29 h incubation, read-out: EC50

Structure (SMILES) | IC50 ([1]; Table IV, assay of example 10) | EC50 (HSV-2; [2]) | other results
CCCC(CC)NC(=O)NC(C(=O)CC(CC(=O)C(C)(C)C)C(=O)NC(C(=O)NCC(C)(C)C)C1(C(=O)O)CCCC1)C(C)(C)C [(R,S)-EtPrCH-NHC(O) / NHCH2CMe3, (R,S)-EtPrCH-NHC(O)-Tbg-CH2-(R)-CH(CH2C(O)CMe3)C(O)-Asp(cyPn)-NHCH2CMe3] | 0.23 µM | 35 µM | 
CCCCC(CCCC)NC(=O)NC(C(=O)CC(CC(=O)C(C)(C)C)C(=O)NC(C(=O)NCC(C)(C)C)C1(C(=O)O)CCCC1)C(C)(C)C [Bu2CHNHC(O) / NHCH2CMe3, Bu2CHNHC(O)-Tbg-CH2-(R)-CH(CH2C(O)CMe3)C(O)-Asp(cyPn)-NHCH2CMe3] | 0.53 µM | 65 µM | 
CCC(CC)NC(=O)NC(C(=O)CC(CC(=O)C(C)(C)C)C(=O)NC(C(=O)NCC(C)(C)C)C1(C(=O)O)CCCC1)C(C)(C)C [Et2CHNHC(O)-Tbg-CH2-(R)-CH(CH2C(O)-CMe3)C(O)-Asp(cyPn)-NHCH2CMe3] |  |  | IC50 [1, 3]: 0.23 µM; EC50 (HSV-2; [4]): 56 µM
CCC(CC)NC(=O)NC(C(=O)CC(CC(=O)C1CCCC1)C(=O)NC(C(=O)NCC(C)(C)C)C1(C(=O)O)CCCC1)C(C)(C)C [Et2CHNHC(O)-Tbg-CH2-(R)-CH{CH2C(O)-(cyclopentyl)}C(O)-Asp(cyPn)-NHCH2CMe3] |  |  | IC50 [1, 3]: 0.22 µM; EC50 (HSV-2; Human alphaherpesvirus 2, BHK21 (C13), 29 h): 50 µM
CCC(CC)NC(=O)NC(C(=O)CC(CC(=O)N1CCCC1)C(=O)NC(C(=O)NC(CO)CC(C)(C)C)C1(C(=O)O)CCCC1)C(C)(C)C [Et2CHNHC(O)-Tbg-CH2-(S)-CH{CH2C(O)-(pyrrolidino)}C(O)-Asp(cyPn)-γMeLeucinol] |  |  | IC50 [1, 3]: 0.17 µM; EC50 (HSV-2; [4]): 200 µM
CCCC(CC)(CCC)NC(=O)NC(C(=O)CC(CC(=O)C(C)(C)C)C(=O)NC(C(=O)NC(CC)C(C)(C)C)C1(C(=O)O)CCCC1)C(C)(C)C [EtPr2CNHC(O) / NH-(R)-CH(Et)CMe3, EtPr2CNHC(O)-Tbg-CH2-(R)-CH(CH2C(O)CMe3)C(O)-Asp(cyPn)-NH-(R)-CH(Et)CMe3] | 0.36 µM | 6 µM | 
CCCC(CC)(CCC)NC(=O)NC(C(=O)CC(CC(=O)C(C)(C)C)C(=O)NC(C(=O)NC(C)C(C)(C)C)C1(C(=O)O)CCCC1)C(C)(C)C [EtPr2CNHC(O) / NH-(R)-CH(Me)CMe3, EtPr2CNHC(O)-Tbg-CH2-(R)-CH(CH2C(O)CMe3)C(O)-Asp(cyPn)-NH-(R)-CH(Me)CMe3] | 0.41 µM | 10 µM | 
CCCC(C)(C)NC(=O)NC(C(=O)CC(CC(=O)C(C)(C)C)C(=O)NC(C(=O)NCC(C)(C)C)C1(C(=O)O)CCCC1)C(C)(C)C [Me2PrCNHC(O) / NHCH2CMe3, Me2PrCNHC(O)-Tbg-CH2-(R)-CH(CH2C(O)CMe3)C(O)-Asp(cyPn)-NHCH2CMe3] | 0.39 µM | 58 µM | 
CCCC(C)(CCC)NC(=O)NC(C(=O)CC(CC(=O)C(C)(C)C)C(=O)NC(C(=O)NCC(C)(C)CC)C1(C(=O)O)CCCC1)C(C)(C)C [MePr2CHNHC(O) / NHCH2CMe2Et, MePr2CHNHC(O)-Tbg-CH2-(R)-CH(CH2C(O)CMe3)C(O)-Asp(cyPn)-NHCH2CMe2Et] | 0.36 µM |  | EC50 (HSV-2; Human alphaherpesvirus 2, Table IV, cell culture assay of example 11): 29 µM
CCCC(C)(CCC)NC(=O)N[C@H](C(=O)C[C@@H](CC(=O)C(C)(C)C)C(=O)N[C@H](C(=O)NCC(C)(C)C)C1(C(=O)O)CCCC1)C(C)(C)C [MePr2CNHC(O) / NHCH2CMe3, MePr2CNHC(O)-Tbg-CH2-(R)-CH(CH2C(O)CMe3)C(O)-Asp(cyPn)-NHCH2CMe3] | 0.28 µM | 26 µM | 
CCCC(CCC)NC(=O)NC(C(=O)CC(CC(=O)C(C)(C)C)C(=O)NC(C(=O)NC(CC)C(C)(C)C)C1(C(=O)O)CCCC1)C(C)(C)C [Pr2CHNHC(O) / NH-(R)-CH(Et)CMe3, Pr2CHNHC(O)-Tbg-CH2-(R)-CH(CH2C(O)CMe3)C(O)-Asp(cyPn)-NH-(R)-CH(Et)CMe3] | 0.34 µM | 10 µM | 
CCCC(CCC)NC(=O)NC(C(=O)CC(CC(=O)C(C)(C)C)C(=O)NC(C(=O)NC(C)CC(C)(C)C)C1(C(=O)O)CCCC1)C(C)(C)C [Pr2CHNHC(O) / NH-(R)-CH(Me)CH2CMe3, Pr2CHNHC(O)-Tbg-CH2-(R)-CH(CH2C(O)CMe3)C(O)-Asp(cyPn)-NH-(R)-CH(Me)CH2CMe3] | 0.37 µM | 14 µM | 
CCCC(CCC)NC(=O)NC(C(=O)CC(CC(=O)C(C)(C)C)C(=O)NC(C(=O)NC(C)C(CC)CC)C1(C(=O)O)CCCC1)C(C)(C)C [Pr2CHNHC(O) / NH-(R)-CH(Me)CHEt2, Pr2CHNHC(O)-Tbg-CH2-(R)-CH(CH2C(O)CMe3)C(O)-Asp(cyPn)-NH-(R)-CH(Me)CHEt2] | 0.33 µM | 16 µM | 
CCCC(CCC)NC(=O)NC(C(=O)CC(CC(=O)C(C)(C)C)C(=O)NC(C(=O)NC(C)C(C)(C)C)C1(C(=O)O)CCCC1)C(C)(C)C [Pr2CHNHC(O) / NH-(R)-CH(Me)CMe3, Pr2CHNHC(O)-Tbg-CH2-(R)-CH(CH2C(O)CMe3)C(O)-Asp(cyPn)-NH-(R)-CH(Me)CMe3] | 0.28 µM | 14 µM | 
CCCC(CCC)NC(=O)NC(C(=O)CC(CC(=O)C(C)(C)C)C(=O)NC(C(=O)NC(CCC)C(C)(C)C)C1(C(=O)O)CCCC1)C(C)(C)C [Pr2CHNHC(O) / NH-(R)-CH(Pr)CMe3, Pr2CHNHC(O)-Tbg-CH2-(R)-CH(CH2C(O)CMe3)C(O)-Asp(cyPn)-NH-(R)-CH(Pr)CMe3] | 0.43 µM | 15 µM | 
CCCC(CCC)NC(=O)NC(C(=O)CC(CC(=O)C(C)(C)C)C(=O)NC(C(=O)NC(CO)C(C)(C)C)C1(C(=O)O)CCCC1)C(C)(C)C [Pr2CHNHC(O) / NH-(S)-CH(CMe3)CH2OH, Pr2CHNHC(O)-Tbg-CH2-(R)-CH(CH2C(O)CMe3)C(O)-Asp(cyPn)-NH-(S)-CH(CMe3)CH2OH] | 0.23 µM | 48 µM | 
CCCC(CCC)NC(=O)NC(C(=O)CC(CC(=O)C(C)(C)C)C(=O)NC(C(=O)NN(C)C(C)(C)C)C1(C(=O)O)CCCC1)C(C)(C)C [Pr2CHNHC(O) / NH-N(Me)CMe3, Pr2CHNHC(O)-Tbg-CH2-(R)-CH(CH2C(O)CMe3)C(O)-Asp(cyPn)-NH-N(Me)CMe3] | 0.27 µM | 110 µM | 
CCCC(CCC)NC(=O)NC(C(=O)CC(CC(=O)C(C)(C)C)C(=O)NC(C(=O)NCC(C)CC)C1(C(=O)O)CCCC1)C(C)(C)C [Pr2CHNHC(O) / NHCH2-(R,S)-CH(Me)Et, Pr2CHNHC(O)-Tbg-CH2-(R)-CH(CH2C(O)CMe3)C(O)-Asp(cyPn)-NHCH2-(R,S)-CH(Me)Et] | 0.29 µM | 50 µM | 
CCCC(CCC)NC(=O)NC(C(=O)CC(CC(=O)C(C)(C)C)C(=O)NC(C(=O)NCC1CCCCC1)C1(C(=O)O)CCCC1)C(C)(C)C [Pr2CHNHC(O) / NHCH2-(cyclohexyl), Pr2CHNHC(O)-Tbg-CH2-(R)-CH(CH2C(O)CMe3)C(O)-Asp(cyPn)-NHCH2-(cyclohexyl)] | 0.36 µM | 47 µM | 
